Experimental data taken from the NIST ThermoML archive (doi:10.1021/je0504156).
± gives the expanded uncertainty stated by the source.

Assay: xn = mol fraction of the nth substance listed
Conditions: 101 kPa, Liquid

Cc1cccc(O)c1 [3-methylphenol] + OCCO
Conditions | mass density [kg/m3] | viscosity [mPa·s]
308.15 K, x1 = 0.0998 | 1088.36 ± 0.63 | 11.72 ± 0.22
308.15 K, x1 = 0.1999 | 1077.36 ± 0.61 | 12.32 ± 0.23
308.15 K, x1 = 0.3 | 1067.31 ± 0.6 | 12.33 ± 0.23
308.15 K, x1 = 0.3996 | 1058.33 ± 0.59 | 11.88 ± 0.22
308.15 K, x1 = 0.5 | 1050.38 ± 0.59 | 11.2 ± 0.21
308.15 K, x1 = 0.5967 | 1043.44 ± 0.59 | 10.37 ± 0.2
308.15 K, x1 = 0.7002 | 1036.6 ± 0.59 | 9.452 ± 0.18
308.15 K, x1 = 0.8 | 1031.15 ± 0.59 | 8.695 ± 0.17
308.15 K, x1 = 0.8989 | 1026.2 ± 0.6 | 8.03 ± 0.16
308.15 K, x1 = 1 | 1021.64 ± 0.61 | 7.701 ± 0.15
313.15 K, x1 = 0.0998 | 1084.66 ± 0.62 | 9.704 ± 0.18
313.15 K, x1 = 0.1999 | 1073.58 ± 0.6 | 10.13 ± 0.19
313.15 K, x1 = 0.3 | 1063.47 ± 0.59 | 10.02 ± 0.19
313.15 K, x1 = 0.3996 | 1054.44 ± 0.58 | 9.673 ± 0.18
313.15 K, x1 = 0.5 | 1046.47 ± 0.58 | 9.067 ± 0.17
313.15 K, x1 = 0.5967 | 1039.51 ± 0.58 | 8.417 ± 0.17
313.15 K, x1 = 0.7002 | 1032.66 ± 0.58 | 7.67 ± 0.15
313.15 K, x1 = 0.8 | 1027.19 ± 0.58 | 7.03 ± 0.14
313.15 K, x1 = 0.8989 | 1022.22 ± 0.59 | 6.496 ± 0.14
313.15 K, x1 = 1 | 1017.63 ± 0.6 | 6.12 ± 0.13
318.15 K, x1 = 0.0998 | 1080.98 ± 0.61 | 8.113 ± 0.16
318.15 K, x1 = 0.1999 | 1069.79 ± 0.59 | 8.371 ± 0.16
318.15 K, x1 = 0.3 | 1059.61 ± 0.58 | 8.275 ± 0.16
318.15 K, x1 = 0.3996 | 1050.55 ± 0.57 | 7.906 ± 0.16
318.15 K, x1 = 0.5 | 1042.56 ± 0.57 | 7.441 ± 0.15
318.15 K, x1 = 0.5967 | 1035.59 ± 0.57 | 6.893 ± 0.14
318.15 K, x1 = 0.7002 | 1028.7 ± 0.57 | 6.322 ± 0.13
318.15 K, x1 = 0.8 | 1023.23 ± 0.57 | 5.853 ± 0.12
318.15 K, x1 = 0.8989 | 1018.22 ± 0.58 | 5.346 ± 0.12
318.15 K, x1 = 1 | 1013.6 ± 0.59 | 5.022 ± 0.11
323.15 K, x1 = 0.0998 | 1077.28 ± 0.6 | 6.869 ± 0.14
323.15 K, x1 = 0.1999 | 1065.98 ± 0.58 | 7.015 ± 0.14
323.15 K, x1 = 0.3 | 1055.75 ± 0.57 | 6.894 ± 0.14
323.15 K, x1 = 0.3996 | 1046.64 ± 0.56 | 6.572 ± 0.14
323.15 K, x1 = 0.5 | 1038.63 ± 0.56 | 6.182 ± 0.13
323.15 K, x1 = 0.5967 | 1031.63 ± 0.56 | 5.763 ± 0.12
323.15 K, x1 = 0.7002 | 1024.74 ± 0.56 | 5.27 ± 0.12
323.15 K, x1 = 0.8 | 1019.25 ± 0.57 | 4.811 ± 0.11
323.15 K, x1 = 0.8989 | 1014.22 ± 0.57 | 4.433 ± 0.099
323.15 K, x1 = 1 | 1009.56 ± 0.58 | 4.158 ± 0.094
333.15 K, x1 = 0.0998 | 1069.86 ± 0.58 | 5.133 ± 0.11
333.15 K, x1 = 0.1999 | 1058.35 ± 0.56 | 5.087 ± 0.11
333.15 K, x1 = 0.3 | 1047.97 ± 0.55 | 4.972 ± 0.11
333.15 K, x1 = 0.3996 | 1038.8 ± 0.54 | 4.817 ± 0.11
333.15 K, x1 = 0.5 | 1030.72 ± 0.54 | 4.45 ± 0.099
333.15 K, x1 = 0.5967 | 1023.71 ± 0.54 | 4.145 ± 0.093
333.15 K, x1 = 0.7002 | 1016.76 ± 0.54 | 3.794 ± 0.085
333.15 K, x1 = 0.8 | 1011.25 ± 0.55 | 3.488 ± 0.079
333.15 K, x1 = 0.8989 | 1006.16 ± 0.56 | 3.219 ± 0.073
333.15 K, x1 = 1 | 1001.44 ± 0.57 | 2.98 ± 0.068
343.15 K, x1 = 0.0998 | 1060.26 ± 4 | 3.81 ± 0.085
343.15 K, x1 = 0.1999 | 1048.59 ± 4 | 3.82 ± 0.085
343.15 K, x1 = 0.3 | 1038.14 ± 4 | 3.72 ± 0.083
343.15 K, x1 = 0.3996 | 1028.9 ± 4 | 3.554 ± 0.08
343.15 K, x1 = 0.5 | 1020.81 ± 4 | 3.332 ± 0.075
343.15 K, x1 = 0.5967 | 1013.76 ± 4 | 3.096 ± 0.07
343.15 K, x1 = 0.7002 | 1006.79 ± 4 | 2.858 ± 0.065
343.15 K, x1 = 0.8 | 1001.25 ± 4 | 2.635 ± 0.061
343.15 K, x1 = 0.8989 | 996.13 ± 4 | 2.426 ± 0.056
343.15 K, x1 = 1 | 991.33 ± 4 | 2.231 ± 0.052
353.15 K, x1 = 0.0998 | 1055.21 ± 0.54 | 2.995 ± 0.068
353.15 K, x1 = 0.1999 | 1043.24 ± 0.53 | 2.967 ± 0.067
353.15 K, x1 = 0.3 | 1032.71 ± 0.51 | 2.882 ± 0.065
353.15 K, x1 = 0.3996 | 1023.39 ± 0.51 | 2.734 ± 0.062
353.15 K, x1 = 0.5 | 1015.21 ± 0.51 | 2.566 ± 0.059
353.15 K, x1 = 0.5967 | 1008.1 ± 0.51 | 2.401 ± 0.055
353.15 K, x1 = 0.7002 | 1001.08 ± 0.51 | 2.237 ± 0.052
353.15 K, x1 = 0.8 | 995.5 ± 0.53 | 2.048 ± 0.048
353.15 K, x1 = 0.8989 | 990.32 ± 0.56 | 1.901 ± 0.045
353.15 K, x1 = 1 | 985.42 ± 0.58 | 1.759 ± 0.042
